# Patent US10435399B2, “HDAC6 inhibitory heterocyclic compound” (TAKEDA PHARMACEUTICAL COMPANY LIMITED, priority 2017, dated 2019)
# Biological target: T1, HDAC6 enzyme (Homo sapiens, UniProt Q9UBN7)
# T1 construct: transducing full length HDAC6 gene into Sf-9 insect cells; GST; purchased SignalChem; host or cells: Sf-9 insect cells
# T1 sequence (Q9UBN7 1-1215): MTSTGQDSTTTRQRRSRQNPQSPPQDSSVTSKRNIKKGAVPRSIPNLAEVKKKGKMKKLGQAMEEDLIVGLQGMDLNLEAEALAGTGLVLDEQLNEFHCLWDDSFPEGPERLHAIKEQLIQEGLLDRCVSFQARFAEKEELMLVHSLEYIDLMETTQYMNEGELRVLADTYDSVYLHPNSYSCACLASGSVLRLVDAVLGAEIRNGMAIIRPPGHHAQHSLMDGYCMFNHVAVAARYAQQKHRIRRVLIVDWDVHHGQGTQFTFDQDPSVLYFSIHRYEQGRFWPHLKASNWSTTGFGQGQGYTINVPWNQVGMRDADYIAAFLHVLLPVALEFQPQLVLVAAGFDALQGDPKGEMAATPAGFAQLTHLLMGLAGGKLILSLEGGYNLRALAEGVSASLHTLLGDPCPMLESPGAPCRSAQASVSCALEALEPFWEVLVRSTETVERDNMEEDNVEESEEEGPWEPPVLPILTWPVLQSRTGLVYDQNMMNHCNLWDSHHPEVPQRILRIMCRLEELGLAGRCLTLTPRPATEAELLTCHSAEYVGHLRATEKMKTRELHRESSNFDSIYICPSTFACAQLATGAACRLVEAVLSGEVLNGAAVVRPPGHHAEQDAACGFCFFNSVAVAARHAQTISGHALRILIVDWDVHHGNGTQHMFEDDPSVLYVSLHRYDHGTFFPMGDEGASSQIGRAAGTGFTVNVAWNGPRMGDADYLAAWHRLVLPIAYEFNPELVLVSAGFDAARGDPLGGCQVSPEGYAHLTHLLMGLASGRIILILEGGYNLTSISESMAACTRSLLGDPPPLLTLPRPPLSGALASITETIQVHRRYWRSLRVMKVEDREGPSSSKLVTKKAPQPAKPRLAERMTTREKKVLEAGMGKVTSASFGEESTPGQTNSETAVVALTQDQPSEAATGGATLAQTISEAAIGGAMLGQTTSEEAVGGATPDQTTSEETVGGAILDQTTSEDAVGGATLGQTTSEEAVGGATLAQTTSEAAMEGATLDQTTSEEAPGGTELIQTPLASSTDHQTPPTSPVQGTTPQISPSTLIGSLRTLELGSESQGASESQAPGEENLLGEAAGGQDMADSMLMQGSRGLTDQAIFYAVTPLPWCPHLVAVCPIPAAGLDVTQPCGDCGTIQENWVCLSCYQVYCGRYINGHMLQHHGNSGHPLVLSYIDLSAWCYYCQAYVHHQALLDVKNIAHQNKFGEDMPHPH
# Test: HDAC6 enzyme inhibitory activity (HDAC-Glo I/II Assay kit)
# Type: biochemical
# Conditions: 10 μM; wells without enzyme = 100% inhibition
# Method in brief: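 Luminescent HDAC-Glo I/II readout after 20 min room-temperature reaction with substrate-developer, following 60 min compound–enzyme preincubation. Enzyme: full-length HDAC6 from Sf-9 cells, GST-purified; buffer 24 mM Tris-HCl pH 7.5, 0.01% Tween-20, glutathione, salts. Wells lacking enzyme define 100% inhibition.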
row,Compound,HDAC6 inhibitory rate (%) (10 μM)
1,"O=C1c2cc(-c3nnc(C(F)F)o3)ccc2CN1[C@@H]1CCC(F)(F)C[C@@H]1c1ccccn1 (relative stereo) [Example 591, 6-(5-(difluoromethyl)-1,3,4-oxadiazol-2-yl)-2-((1R*,2S*)-4,4-difluoro-2-(pyridin-2-yl)cyclohexyl)isoindolin-1-one (optical isomer)]",99

# Same assay, conditions: 10 μM; wells without enzyme = 100% inhibition; read-out: HDAC6 inhibitory rate (%) (10 μM)
row,Compound,inhibition at 10 µM [%]
1,"O=C1c2cc(-c3nnc(C(F)F)o3)cnc2CN1Cc1ccc(Cl)cc1 [Example 333, 6-(4-chlorobenzyl)-3-(5-(difluoromethyl)-1,3,4-oxadiazol-2-yl)-6,7-dihydro-5H-pyrrolo[3,4-b]pyridin-5-one]",97
2,"CC(F)(F)C(=O)N[C@@H]1CC(F)(F)CC[C@H]1N1Cc2ncc(-c3nnc(C(F)F)o3)cc2C1=O [Example 639, N-((1R,2R)-2-(3-(5-(difluoromethyl)-1,3,4-oxadiazol-2-yl)-5-oxo-5,7-dihydro-6H-pyrrolo[3,4-b]pyridin-6-yl)-5,5-difluorocyclohexyl)-2,2-difluoropropanamide]",100
3,"Cn1cc(C2CCCCN2N2Cc3ccc(-c4nnc(C(F)F)o4)cc3C2=O)cn1 (stereo not shown) [Example 609, 6-(5-(difluoromethyl)-1,3,4-oxadiazol-2-yl)-2-(2-(1-methyl-1H-pyrazol-4-yl)piperidin-1-yl)isoindolin-1-one]",99
4,"CCOc1ccccc1CN1Cc2ncc(-c3nnc(C(F)F)o3)cc2C1=O [Example 456, 3-(5-(difluoro-methyl)-1,3,4-oxadiazol-2-yl)-6-(2-ethoxy-benzyl)-6,7-dihydro-5H-pyrrolo[3,4-b] pyridin-5-one]",100
5,"O=C1c2cc(-c3nnc(C(F)F)o3)cc(F)c2CN1C[C@@H]1CCCN1S(=O)(=O)C1CC1 [Example 336, 2-(((2S)-1-(cyclopropyl-sulfonyl)pyrrolidin-2-yl)methyl)-6-(5-(difluoromethyl)-1,3,4-oxadiazol-2-yl)-4-fluoroisoindolin-1-one]",102
6,"O=C1c2cc(-c3nnc(C(F)F)o3)ccc2CN1[C@@H]1CCCC(F)(F)[C@H]1NC(=O)C(F)(F)C(F)(F)F [Example 513, N-((1S,6R)-6-(6-(5-(difluoromethyl)-1,3,4-oxadiazol-2-yl)-1-oxo-1,3-dihydro-2H-isoindol-2-yl)-2,2-difluorocyclohexyl)-2,2,3,3,3-pentafluoropropanamide]",99
7,"CCCCCCC(=O)N[C@@H]1CCCC[C@H]1N1Cc2ccc(-c3nnc(C(F)F)o3)cc2C1=O [Example 107, N-((1R,2R)-2-(6-(5-(difluoromethyl)-1,3,4-oxadiazol-2-yl)-1-oxo-1,3-dihydro-2H-isoindol-2-yl)cyclohexyl)heptanamide]",102
8,"O=C1c2cc(-c3nnc(C(F)F)o3)ccc2CN1c1ccccc1-c1ccc2c(c1)CCO2 [Example 287, 6-(5-(difluoromethyl)-1,3,4-oxadiazol-2-yl)-2-(2-(2,3-dihydro-1-benzofuran-5-yl)phenyl)isoindolin-1-one]",100
9,"CC(F)(F)C(=O)N1CCC[C@H](N2Cc3ccc(-c4nnc(C(F)F)o4)cc3C2=O)[C@H]1c1ccc(F)cc1 (racemic) [Example 576, 6-(5-(difluoromethyl)-1,3,4-oxadiazol-2-yl)-2-((2RS,3SR)-1-(2,2-difluoropropanoyl)-2-(4-fluorophenyl)piperidin-3-yl)isoindolin-1-one]",99
10,"O=C1c2cc(-c3nnc(C(F)F)o3)cnc2CN1Cc1cccc(F)c1F [Example 327, 6-(2,3-difluorobenzyl)-3-(5-(difluoromethyl)-1,3,4-oxadiazol-2-yl)-6,7-dihydro-5H-pyrrolo[3,4-b]pyridin-5-one]",99
11,"O=C1c2cc(-c3nnc(C(F)F)o3)ccc2CN1c1ccccc1-c1ccccc1OC(F)(F)F [Example 298, 6-(5-(difluoromethyl)-1,3,4-oxadiazol-2-yl)-2-(2′-(trifluoromethoxy)biphenyl-2-yl)isoindolin-1-one]",100
12,"O=C1c2cc(-c3nnc(C(F)F)o3)cnc2CN1Cc1ccc(C(F)(F)F)cc1 [Example 334, 3-(5-(difluoromethyl)-1,3,4-oxadiazol-2-yl)-6-(4-(trifluoromethyl)benzyl)-6,7-dihydro-5H-pyrrolo[3,4-b]pyridin-5-one]",93
13,"Cn1cc(-c2cc(F)ccc2N2Cc3ccc(-c4nnc(C(F)F)o4)cc3C2=O)cn1 [Example 271, 6-(5-(difluoromethyl)-1,3,4-oxadiazol-2-yl)-2-(4-fluoro-2-(1-methyl-1H-pyrazol-4-yl)phenyl)isoindolin-1-one]",100
14,"O=C1c2cc(-c3nnc(C(F)F)o3)cnc2CN1Cc1c(F)cccc1F [Example 329, 6-(2,6-difluorobenzyl)-3-(5-(difluoromethyl)-1,3,4-oxadiazol-2-yl)-6,7-dihydro-5H-pyrrolo[3,4-b]pyridin-5-one]",99
15,"O=C(N[C@@H]1CCCC[C@H]1N1Cc2ccc(-c3nnc(C(F)F)o3)cc2C1=O)C1CC(F)(F)C1 [Example 33, N-((1R,2R)-2-(6-(5-(difluoromethyl)-1,3,4-oxadiazol-2-yl)-1-oxo-1,3-dihydro-2H-isoindol-2-yl)cyclohexyl)-3,3-difluorocyclobutanecarboxamide]",97
16,"Cn1cc(-c2cn(C)nc2N2Cc3ccc(-c4nnc(C(F)F)o4)cc3C2=O)cn1 [Example 434, 6-(5-(difluoro-methyl)-1,3,4-oxadiazol-2-yl)-2-(1,1′-dimethyl-1H,1′H-4,4′-bipyrazol-3-yl) isoindolin-1-one]",98
17,"O=C(N[C@@H]1CCCC[C@H]1N1Cc2ccc(-c3nnc(C(F)F)o3)cc2C1=O)C1CC12CCC2 (stereo partly drawn) [Example 72, N-((1R,2R)-2-(6-(5-(difluoromethyl)-1,3,4-oxadiazol-2-yl)-1-oxo-1,3-dihydro-2H-isoindol-2-yl)cyclohexyl)spiro[2.3]hexane-1-carboxamide (optical isomer)]",97
18,"COC1(C(=O)N[C@@H]2CCCC[C@H]2N2Cc3ccc(-c4nnc(C(F)F)o4)cc3C2=O)CC1 [Example 68, N-((1R,2R)-2-(6-(5-(difluoromethyl)-1,3,4-oxadiazol-2-yl)-1-oxo-1,3-dihydro-2H-isoindol-2-yl)cyclohexyl)-1-methoxycyclopropanecarboxamide]",101
19,"O=C1c2cc(-c3nnc(C(F)F)o3)cnc2CN1Cc1ccccc1 [Example 139, 6-benzyl-3-(5-(difluoromethyl)-1,3,4-oxadiazol-2-yl)-6,7-dihydro-5H-pyrrolo[3,4-b]pyridin-5-one]",100
20,"Cn1cncc1C(=O)N[C@@H]1CCCC[C@H]1N1Cc2ccc(-c3nnc(C(F)F)o3)cc2C1=O [Example 96, N-((1R,2R)-2-(6-(5-(difluoromethyl)-1,3,4-oxadiazol-2-yl)-1-oxo-1,3-dihydro-2H-isoindol-2-yl)cyclohexyl)-1-methyl-1H-imidazole-5-carboxamide]",98
21,"O=C(N[C@@H]1CCCC[C@H]1N1Cc2ncc(-c3nnc(C(F)F)o3)cc2C1=O)c1cccc(F)c1 [Example 224, N-((1R,2R)-2-(3-(5-(difluoromethyl)-1,3,4-oxadiazol-2-yl)-5-oxo-5,7-dihydro-6H-pyrrolo[3,4-b]pyridin-6-yl)cyclohexyl)-3-fluorobenzamide]",100
